Experimental findings from US7928238B2, “1,2,3,4-tetrahydro-quinoline derivatives as CETP inhibitors” (Janssen Pharmaceutica NV, priority 2006, dated 2011) are described below.

The target of the assay is T1, CETP (Homo sapiens, UniProt P11597).
T1 construct: from tissue; host or cells: human plasma from normal volunteers
T1 sequence (P11597 18-493): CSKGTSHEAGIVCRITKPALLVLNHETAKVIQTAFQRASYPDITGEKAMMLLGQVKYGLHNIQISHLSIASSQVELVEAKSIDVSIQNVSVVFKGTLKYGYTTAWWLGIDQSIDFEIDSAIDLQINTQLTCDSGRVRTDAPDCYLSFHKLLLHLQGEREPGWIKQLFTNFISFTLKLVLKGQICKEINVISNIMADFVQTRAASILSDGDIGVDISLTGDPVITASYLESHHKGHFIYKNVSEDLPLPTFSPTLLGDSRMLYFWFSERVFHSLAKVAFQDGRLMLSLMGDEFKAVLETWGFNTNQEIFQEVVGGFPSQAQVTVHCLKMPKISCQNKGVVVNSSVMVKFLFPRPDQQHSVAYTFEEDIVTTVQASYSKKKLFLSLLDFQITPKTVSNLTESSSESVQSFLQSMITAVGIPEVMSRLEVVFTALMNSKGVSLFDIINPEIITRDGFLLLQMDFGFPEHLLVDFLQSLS
Nature of the assay: CETP in vitro assay (Amersham kit TRKQ7005; modified protocol in human plasma, [3H]CE-HDL transfer). It is filed as biochemical. The settings on record: for inhibition at 1 µM / % Inhibition @ 1 μM: 1 μM compound; for inhibition at 1 µM: read-out: % Inhibition @ 1 μM; for IC50: from plots of % control versus compound concentration. The method, then: The CETP inhibitory activity of the compounds was determined using a commercially available kit from Amersham Biosciences (Catalog #TRKQ7005).
Briefly, 80 μl of human plasma (obtained from normal volunteers), approximately 25 μg/ml (20 μl) of [^3H]CE-HDL (Amersham Biosciences from kit TRKQ7005) and 1 μl of compound dissolved in DMSO was incubated for at least 4 hrs at 37° C. and non-specific transfer was determined by incubating a corresponding plate at 4° C. (blank). After the incubation period, 10 μl of a solution of 1% Dextralip 50/0.5M MgCl2, pH 7.4 was added, vortexed and incubated at room temperature for 10 min. The plate was then centrifuged for 30 min at 10° C. at 300 rpm in a Sorvall RT6000B centrifuge. Fifty microliters of the supernatant was transferred to a Picoplate (Packard) containing 100 μl of Microscint 40 (Perkin Elmer) and mixed for 30 min using a plate mixer. The radioactivity was counted using a TopCount (Perkin Elmer) and the % control was determined in the samples using the following formula: % transfer relative to vehicle controls (% control)=[cpm blank−cpm test]/cpm blank/cpm control]×100. IC50s were calculated from plots of the % control versus compound concentration.

Where “and” joins values, the source holds several entries; their conditions need not be identical. Equal values may be shown once. Bounds are passed on as bounds.

As for `OC(CN1c2cccc(-c3cccc(OC(F)(F)F)c3)c2CCC1c1cccc(OC(F)(F)C(F)F)c1)C(F)(F)F` (single isomer, unassigned) [Compound 1, 1,1,1-Trifluoro-3-[2-[3-(1,1,2,2-tetrafluoro-ethoxy)-phenyl]-5-(3-trifluoromethoxy-phenyl)-3,4-dihydro-2H-quinolin-1-yl]-propan-2-ol], the inhibition at 1 µM came out at 100%; the half-maximal inhibitory concentration (IC50) is 7 nM and 25 nM and 30 nM.
Take `CCC1CCc2c(-c3cccc(OC(F)(F)F)c3)cccc2N1CC(O)C(F)(F)F` (stereo not drawn) [Compound 36, 3-[2-Ethyl-5-(3-trifluoromethoxy-phenyl)-3,4-dihydro-2H-quinolin-1-yl]-1,1,1-trifluoro-propan-2-ol]: the “% Inhibition @ 1 μM” value is 11% and 13%.
As to `COc1cccc(-c2cccc3c2CC[C@H](c2cccc(OC(F)(F)C(F)F)c2)N3C[C@H](O)C(F)(F)F)c1` [Compound 83], the “% Inhibition @ 1 μM” value is reported as 98%; the inhibition at 1 µM is 100%; the 50% inhibitory concentration (IC50) is 140 nM and 160 nM.
On to `C[C@@H](O)CN1c2cccc(-c3cccc(OC(F)(F)F)c3)c2CC[C@@H]1c1cccc(OC(F)(F)C(F)F)c1` [Compound 70, (αR,2R)-3,4-Dihydro-α-methyl-2-[3-(1,1,2,2-tetrafluoroethoxy)phenyl]-5-[3-(trifluoromethoxy)phenyl]-1(2H)-quinolineethanol], for which the “% Inhibition @ 1 μM” value was 69% and 59%; the inhibition at 1 µM was 61%; the IC50 was 63 nM and 39 nM.
With `C[C@@H](O)CN1c2cccc(-c3cccc(OC(F)(F)F)c3)c2CC[C@@H]1c1cccc(OC(F)(F)F)c1` [Compound 53], the “% Inhibition @ 1 μM” value is 57% and 77% and 84%; the half-inhibitory concentration (IC50) is 90 nM and 199 nM and 85 nM.
Consider `OC(CCl)CN1c2cccc(-c3cccc(OC(F)(F)F)c3)c2CCC1c1cccc(OC(F)(F)F)c1` (stereo not drawn) [Compound 47, 1-[2,5-Bis-(3-trifluoromethoxy-phenyl)-3,4-dihydro-2H-quinolin-1-yl]-3-chloro-propan-2-ol], for which the “% Inhibition @ 1 μM” value is 68% and 44%; the half-inhibitory concentration (IC50) is 744 nM.
For the compound `COc1cccc(-c2cccc3c2CC[C@@H](c2cccc(OC(F)(F)F)c2)N3C[C@@H](C)O)c1` [Compound 60], the inhibition at 1 µM was found to be 5%.
On to `OC(CN1c2cccc(-c3cccc(C(F)(F)F)c3)c2CCC1c1cccc(OC(F)(F)C(F)F)c1)C(F)(F)F` (stereo not drawn) [Compound 13], for which the “% Inhibition @ 1 μM” value is 98% and 87%; the IC50 amounted to 96 nM.
As to `OC(CN1c2cccc(-c3cccc(OC(F)(F)F)c3)c2CCC1C1CCCCC1)C(F)(F)F` (stereo not drawn) [Compound 38, 3-[2-Cyclohexyl-5-(3-trifluoromethoxy-phenyl)-3,4-dihydro-2H-quinolin-1-yl]-1,1,1-trifluoro-propan-2-ol], the “% Inhibition @ 1 μM” value was 2%.
Turning to `CCc1cc(Oc2cccc3c2CCC(c2cccc(OC(F)(F)C(F)F)c2)N3CC(O)C(F)(F)F)ccc1Cl` (stereo not drawn) [Compound 85, 3-{5-(4-Chloro-3-ethyl-phenoxy)-2-[3-(1,1,2,2-tetrafluro-ethoxy)-phenyl]-3,4-dihydro-2H-quinolin-1-yl}-1,1,1-trifluoro-propan-2-ol], the “% Inhibition @ 1 μM” value was 86% and 400 nM corresponded to half-maximal inhibition (IC50).
Regarding `OC(CN1c2cccc(-c3cccc(OC(F)(F)F)c3)c2CCC1c1ccccc1)C(F)(F)F` (stereo not drawn) [Compound 20, 1,1,1-Trifluoro-3-[2-phenyl-5-(3-trifluoromethoxy-phenyl)-3,4-dihydro-2H-quinolin-1-yl]-propan-2-ol], the “% Inhibition @ 1 μM” value is 6%.
Turning to `OC(CN1c2cccc(-c3cccc(OC(F)(F)F)c3)c2CCC1c1ccccc1)C(F)(F)F` (stereo not drawn) [Compound 19, 1,1,1-Trifluoro-3-[2-phenyl-5-(3-trifluoromethoxy-phenyl)-3,4-dihydro-2H-quinolin-1-yl]-propan-2-ol], the “% Inhibition @ 1 μM” value came to 21%.
Take `C[C@@H](O)CN1c2cccc(-c3cccc(F)c3)c2CC[C@@H]1c1cccc(OC(F)(F)C(F)F)c1` [Compound 77, (αR,2R)-5-(3-Fluorophenyl)-3,4-dihydro-α-methyl-2-[3-(1,1,2,2-tetrafluoroethoxy)phenyl]-1(2H)-quinolineethanol]: the “% Inhibition @ 1 μM” value came to 48% and the inhibition at 1 µM amounted to 38%.
On to `COC[C@@H](O)CN1c2cccc(-c3cccc(OC(F)(F)F)c3)c2CC[C@H]1c1cccc(OC(F)(F)F)c1` [Compound 52], for which the inhibition at 1 µM was found to be 0%.
On to `O[C@H](CN1c2cccc(-c3cccc(OC(F)(F)F)c3)c2CC[C@@H]1c1cccc(OC(F)(F)C(F)F)c1)C(F)(F)F` [Compound 79, (2R, αR)-3,4-Dihydro-2-[3-(1,1,2,2-tetrafluoroethoxy)phenyl]-5-[3-(trifluoromethoxy)phenyl]-α-(trifluoromethyl)-1(2H)-quinolineethanol], for which the inhibition at 1 µM turned out to be 62% and the IC50 is above 3000 nM.
On to `CC(C)Oc1cccc(-c2cccc3c2CCC(c2cccc(OC(F)(F)C(F)F)c2)N3CC(O)C(F)(F)F)c1` (stereo not drawn) [Compound 68, 1,1,1-Trifluoro-3-{5-(3-isopropoxy-phenyl)-2-[3-(1,1,2,2-tetrafluoro-ethoxy)-phenyl]-3,4-dihydro-2H-quinolin-1-yl}-propan-2-ol], for which the “% Inhibition @ 1 μM” value is 49% and 61%; the half-maximal inhibitory concentration (IC50) worked out at 345 nM.
In the case of `COc1cccc(-c2cccc3c2CCC(c2cccc(OC(F)(F)C(F)F)c2)N3CC(O)C(F)(F)F)c1` (stereo not drawn) [Compound 72, 1,1,1-Trifluoro-3-{5-(3-methoxy-phenyl)-2-[3-(1,1,2,2-tetrafluoro-ethoxy)-phenyl]-3,4-dihydro-2H-quinolin-1-yl}-propan-2-ol], the “% Inhibition @ 1 μM” value is 75% and 62%; the IC50 was 160 nM and 93 nM.
Consider `OC(CN1c2cccc(-c3cccc(Cl)c3)c2CCC1c1cccc(OC(F)(F)C(F)F)c1)C(F)(F)F` (stereo not drawn) [Compound 16, 3-{5-(3-Chloro-phenyl)-2-[3-(1,1,2,2-tetrafluoro-ethoxy)-phenyl]-3,4-dihydro-2H-quinolin-1-yl}-1,1,1-trifluoro-propan-2-ol], for which the inhibition at 1 µM was found to be 55%.
For `OC(CN1c2cccc(-c3cccc(OC(F)(F)F)c3)c2CCC1c1cccs1)C(F)(F)F` (stereo not drawn) [Compound 34, 1,1,1-Trifluoro-3-[2-thiophen-2-yl-5-(3-trifluoromethoxy-phenyl)-3,4-dihydro-2H-quinolin-1-yl]-propan-2-ol], the “% Inhibition @ 1 μM” value worked out at 12%.
As for `C[C@H](O)CN1c2cccc(-c3cccc(OC(F)(F)F)c3)c2CC[C@@H]1c1cccc(OC(F)(F)C(F)F)c1` [Compound 61], the inhibition at 1 µM was determined as 0%.
On to `OC(CN1c2cccc(-c3cccc(F)c3)c2CCC1c1cccc(OC(F)(F)F)c1)C(F)(F)F` (stereo not drawn) [Compound 57, 1,1,1-Trifluoro-3-[5-(3-fluoro-phenyl)-2-(3-trifluoromethoxy-phenyl)-3,4-dihydro-2H-quinolin-1-yl]-propan-2-ol], for which the “% Inhibition @ 1 μM” value is 92% and 97% and 91%; the IC50 is 59 nM and 253 nM.
For the compound `COc1cccc(-c2cccc3c2CC[C@H](c2cccc(OC(F)(F)F)c2)N3C[C@H](O)C(F)(F)F)c1` [Compound 59], the inhibition at 1 µM stood at 30%.
Consider `OC(CN1c2cccc(-c3cccc(OC(F)(F)F)c3)c2CCC1c1cccc(F)c1)C(F)(F)F` (stereo not drawn) [Compound 23, 1,1,1-Trifluoro-3-[2-(3-fluoro-phenyl)-5-(3-trifluoromethoxy-phenyl)-3,4-dihydro-2H-quinolin-1-yl]-propan-2-ol], for which the “% Inhibition @ 1 μM” value is 33%.
As for `C[C@@H](O)CN1c2cccc(-c3cccc(F)c3)c2CC[C@@H]1c1cccc(OC(F)(F)F)c1` [Compound 55], the “% Inhibition @ 1 μM” value is on record as 34%, the inhibition at 1 µM was found to be 39% and the IC50 was 110 nM.
In the case of `OC(CN1c2cccc(-c3cccc(OC(F)(F)F)c3)c2CCC1c1cccc(Cl)c1)C(F)(F)F` (stereo not drawn) [Compound 30, 3-[2-(3-Chloro-phenyl)-5-(3-trifluoromethoxy-phenyl)-3,4-dihydro-2H-quinolin-1-yl]-1,1,1-trifluoro-propan-2-ol], the “% Inhibition @ 1 μM” value was found to be 13%.
With `C[C@@H](O)CN1c2cccc(-c3cccc(OC(F)(F)F)c3)c2CC[C@H]1c1cccc(OC(F)(F)F)c1` [Compound 54], the inhibition at 1 µM came out at 13%.
`OC(CN1c2cccc(-c3ccc(C(F)(F)F)cc3)c2CCC1c1cccc(OC(F)(F)C(F)F)c1)C(F)(F)F` (stereo not drawn) [Compound 3, 1,1,1-Trifluoro-3-[2-[3-(1,1,2,2-tetrafluoro-ethoxy)-phenyl]-5-(4-trifluoromethyl-phenyl)-3,4-dihydro-2H-quinolin-1-yl]-propan-2-ol]: the “% Inhibition @ 1 μM” value is given as 85% and the IC50 was 500 nM.
Take `COC[C@@H](O)CN1c2cccc(-c3cccc(OC(F)(F)F)c3)c2CC[C@@H]1c1cccc(OC(F)(F)F)c1` [Compound 51]: the inhibition at 1 µM was found to be 13%.
